According to patent US4757074A, “Piperazinyl benzyl acids having antihistamine activity” (Burroughs Wellcome Co., priority 1983, dated 1988):

Biological target: T1, longitudinal muscle from the intact ileum of guinea-pigs (response to histamine) (Cavia porcellus, UniProt P31389)
T1 construct: The longitudinal muscle was isolated from the intact ileum of guinea-pigs; from tissue; host or cells: longitudinal muscle of guinea-pig ileum (Hartley, male)
Assay: not given
Details: literature value, R. B. Barlow, Introduction to Chemical Pharmacology, 2nd ed., p. 357, 1964; cited from earlier work

T1 sequence (P31389 whole entry): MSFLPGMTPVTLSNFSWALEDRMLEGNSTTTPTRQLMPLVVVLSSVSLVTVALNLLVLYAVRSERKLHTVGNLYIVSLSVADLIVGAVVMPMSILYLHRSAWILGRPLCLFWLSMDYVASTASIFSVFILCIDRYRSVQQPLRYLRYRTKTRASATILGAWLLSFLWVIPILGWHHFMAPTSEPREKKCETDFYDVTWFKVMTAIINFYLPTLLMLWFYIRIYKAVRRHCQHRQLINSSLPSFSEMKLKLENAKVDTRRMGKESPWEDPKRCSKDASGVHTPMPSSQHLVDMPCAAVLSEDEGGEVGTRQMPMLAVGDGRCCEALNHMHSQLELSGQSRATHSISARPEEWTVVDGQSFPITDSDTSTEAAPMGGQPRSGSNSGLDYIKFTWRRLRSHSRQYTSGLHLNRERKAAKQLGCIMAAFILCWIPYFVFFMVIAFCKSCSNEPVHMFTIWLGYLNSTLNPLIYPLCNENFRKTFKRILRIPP

**Q.** With `CN1CCN(C(c2ccccc2)c2ccc(Cl)cc2)CC1` (stereo not shown) [Chlorcyclizine, 1-(4-Chlorobenzhydryl)-4-methylpiperazine] as the compound, how does the pA2 read?
**A.** The pA2 was 8.6.

Test system: not given
Assay: not given
Details: clinical use, most patients; Goodman and Gilman, 4th ed., p. 640, 1970; cited from earlier work

**Q.** With `CN1CCN(C(c2ccccc2)c2ccc(Cl)cc2)CC1` (stereo not shown) [Chlorcyclizine, 1-(4-Chlorobenzhydryl)-4-methylpiperazine] as the compound, how does the sedation and drowsiness read?
**A.** Its sedation and drowsiness is “produces sedation and drowsiness in varying degrees in most patients”.

Biological target: T1, longitudinal muscle from the intact ileum of guinea-pigs (response to histamine)
Assay: In vitro antihistaminic activity (inhibition of histamine concentration-response in isolated ileum longitudinal muscle)
Parameters: species or system guinea-pigs (Hartley, male)
Details: negative log of the concentration which gives a significant antihistaminic effect; guinea-pig ileum longitudinal muscle; one hour incubation with test compound; Arunlakshana and Schild method; read-out: pA2 (converted)
Protocol: In vitro antihistaminic activity: The longitudinal muscle was isolated from the intact ileum of guinea-pigs (Hartley, male, 250-400 g) and placed in an organ bath under 300 mg tension. After one hour of equilibration, cumulative concentration-response curves (Van Rossum, J. M., Arch. Int. Pharmacodyn. Ther. 143, 299-330, 1963) to histamine were obtained. Following washing, the tissues were incubated for one hour with the test compound and then a second histamine concentration-response curve was run. Antihistaminic activity was determined as pA2 values by the method of Arunlakshana, O. and Schild, H. O. (Br. J. Pharmacol: 14, 48-58, 1959).

**Q.** With `CN1CCN(C(c2ccc(Cl)cc2)c2cccc(/C=C/C(=O)O)c2)CC1` (stereo not drawn) [A, (E)-3-(4-Chloro-α-(4-methyl-1-piperazinyl)-benzyl)cinnamic acid] as the compound, how does the Kb read?
**A.** The Kb was 0.501 µM.

**Q.** With `CN1CCN(C(c2ccc(Cl)cc2)c2cccc(C(=O)O)c2)CC1` (stereo not drawn) [B, 3-(4-Chloro-α-(4-methyl-1-piperazinyl)benzyl)benzoic acid] as the compound, how does the Kb read?
**A.** The Kb was 0.398 µM.

**Q.** For `CN1CCN(C(c2ccc(Cl)cc2)c2ccccc2C(=O)O)CC1` (stereo not drawn) [C, 2-(4-Chloro-α-(4-methyl-1-piperazinyl)benzyl)benzoic acid], which Kb is on record?
**A.** Its Kb is 2.51 µM.

**Q.** Which Kb does the source give for `CN1CCN(C(c2ccc(Cl)cc2)c2ccc(C(=O)O)cc2)CC1` (stereo not drawn) [D, 4-(4-Chloro-α-(4-methyl-1-piperazinyl)benzyl)benzoic acid] here?
**A.** The Kb was 2.51 µM.

**Q.** With `COc1ccc(C(c2cccc(C(=O)O)c2)N2CCN(C)CC2)cc1` (stereo not drawn) [E, 3-(4-Methoxy-α-(4-methyl-1-piperazinyl)benzyl)benzoic acid] as the compound, how does the Kb read?
**A.** Its Kb is 0.316 µM.

**Q.** With `CN1CCN(C(c2ccc(Cl)cc2)c2cccc(OCC(=O)O)c2)CC1` (stereo not drawn) [F, 3-(4-Chloro-α-(4-methyl-1-piperazinyl)benzyl)phenoxyacetic acid] as the compound, how does the Kb read?
**A.** Its Kb is 0.158 µM.

**Q.** With `Cc1cccc(CN2CCN(C(c3ccc(Cl)cc3)c3cccc(OCC(=O)O)c3)CC2)c1` (stereo not drawn) [G, 3-(4-Chloro-α-(4-(3-methylbenzyl)-1-piperazinyl)benzyl)phenoxyacetic acid] as the compound, how does the Kb read?
**A.** The Kb was 0.00158 µM.

**Q.** With `CC(C)(C)c1ccc(CN2CCN(C(c3ccc(Cl)cc3)c3cccc(OCC(=O)O)c3)CC2)cc1` (stereo not drawn) [H, 3-(4-Chloro-α-(4-(4-tert-butylbenzyl)-1-piperazinyl)benzyl)phenoxyacetic acid] as the compound, how does the Kb read?
**A.** Its Kb is 0.00631 µM.
